Measurements taken from ChEMBL document CHEMBL1201862, “PubChem BioAssay data set” (2004).
The source made the active and inactive calls.

Tests used:
[1] = system: A549; experiment: viability loss in A549 cells – cell-based, plate reader, cherry-pick samples, cytotoxicity control, dose response (AID 687028); type: functional; conditions: Homo sapiens
[2] = system: Vero; experiment: viability loss in Vero cells – cell-based, plate reader, cherry-pick samples, cytotoxicity control, dose response (AID 687020); type: functional; conditions: Chlorocebus sabaeus
[3] = target: Beta-galactosidase (Escherichia coli, UniProt Q8VNN2); experiment: Dose response counterscreen for EBI2 assay utilizing the enzyme, b-galactosidase.; type: functional
Beta-galactosidase, sequence (Q8VNN2 whole entry): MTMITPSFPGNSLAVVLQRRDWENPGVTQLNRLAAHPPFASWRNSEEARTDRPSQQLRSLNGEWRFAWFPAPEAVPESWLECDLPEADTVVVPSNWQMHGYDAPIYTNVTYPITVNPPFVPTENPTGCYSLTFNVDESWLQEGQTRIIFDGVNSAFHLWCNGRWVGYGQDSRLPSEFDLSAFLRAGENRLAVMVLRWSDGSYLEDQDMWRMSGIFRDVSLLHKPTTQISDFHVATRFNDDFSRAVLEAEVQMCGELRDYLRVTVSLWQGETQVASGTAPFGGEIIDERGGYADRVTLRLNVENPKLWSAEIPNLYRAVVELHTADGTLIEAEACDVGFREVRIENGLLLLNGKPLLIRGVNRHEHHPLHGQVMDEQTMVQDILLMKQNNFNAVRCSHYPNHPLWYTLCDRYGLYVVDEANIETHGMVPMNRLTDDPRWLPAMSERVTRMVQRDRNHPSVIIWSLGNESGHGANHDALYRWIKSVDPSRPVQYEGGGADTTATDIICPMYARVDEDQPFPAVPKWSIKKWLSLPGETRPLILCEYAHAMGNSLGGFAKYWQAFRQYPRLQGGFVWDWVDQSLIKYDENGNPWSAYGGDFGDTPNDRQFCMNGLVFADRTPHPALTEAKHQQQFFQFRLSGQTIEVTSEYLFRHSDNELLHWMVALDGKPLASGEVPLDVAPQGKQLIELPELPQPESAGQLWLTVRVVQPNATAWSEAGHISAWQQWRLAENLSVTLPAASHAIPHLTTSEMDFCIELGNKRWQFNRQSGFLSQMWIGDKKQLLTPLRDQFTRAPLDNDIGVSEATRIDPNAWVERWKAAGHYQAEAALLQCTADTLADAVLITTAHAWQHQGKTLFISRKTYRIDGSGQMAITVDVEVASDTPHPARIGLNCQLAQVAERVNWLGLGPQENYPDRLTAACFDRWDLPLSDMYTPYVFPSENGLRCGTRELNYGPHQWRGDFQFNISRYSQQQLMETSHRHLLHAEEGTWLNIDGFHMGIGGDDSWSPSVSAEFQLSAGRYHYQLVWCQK

[4] = toxicity toward immortalized ovarian surface epithelium – cell-based, plate reader, dry powder samples, cytotoxicity control for PAX8 inhibitor project, dose response (AID 743045); type: functional
[5] = target: Paired box protein Pax-8 (Homo sapiens, UniProt Q06710); experiment: PAX8 transcriptional activity inhibition in RMG-I – RMG-I cells, luciferase, cherry-pick, dose response (AID 687027); type: functional, cell-based;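 also: luciferase reporter driven by Pax8 target thyroperoxidase promoter measured by SteadyGlo luminescence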
Paired box protein Pax-8, sequence (Q06710 whole entry): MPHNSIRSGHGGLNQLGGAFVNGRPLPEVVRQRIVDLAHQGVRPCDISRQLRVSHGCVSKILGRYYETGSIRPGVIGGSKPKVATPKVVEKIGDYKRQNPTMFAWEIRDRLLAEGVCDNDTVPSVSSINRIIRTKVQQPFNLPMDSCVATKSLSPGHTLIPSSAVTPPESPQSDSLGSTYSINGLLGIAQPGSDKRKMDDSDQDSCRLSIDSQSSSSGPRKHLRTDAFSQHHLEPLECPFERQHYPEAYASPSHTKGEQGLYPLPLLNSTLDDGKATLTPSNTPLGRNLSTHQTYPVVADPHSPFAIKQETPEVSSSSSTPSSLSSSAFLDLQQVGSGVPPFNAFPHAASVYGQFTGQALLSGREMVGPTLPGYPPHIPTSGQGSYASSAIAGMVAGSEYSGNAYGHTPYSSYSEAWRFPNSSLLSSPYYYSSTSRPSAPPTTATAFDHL

[6] = OVCAR8 cell viability loss – plate reader, dry powder samples, PAX8 project, dose response (AID 743197); type: functional, cell-based; conditions: OVCAR-8
[7] = IGROV1 cell killing – plate reader, dry powder samples, PAX8 inhibitor project, dose response (AID 743043); type: functional, cell-based; conditions: IGROV-1
[8] = OVCAR-3 cell viability loss – plate reader, dry powder samples, PAX8 inhibitor project, dose response (AID 743044); type: functional, cell-based
[9] = cells
[10] = cells; conditions: HEK293
[11] = target: Nonstructural protein 1 (Influenza A virus, UniProt Q194T2); type: functional, Influenza A virus (A/California/07/2009(H1N1))
Nonstructural protein 1, sequence (Q194T2 whole entry): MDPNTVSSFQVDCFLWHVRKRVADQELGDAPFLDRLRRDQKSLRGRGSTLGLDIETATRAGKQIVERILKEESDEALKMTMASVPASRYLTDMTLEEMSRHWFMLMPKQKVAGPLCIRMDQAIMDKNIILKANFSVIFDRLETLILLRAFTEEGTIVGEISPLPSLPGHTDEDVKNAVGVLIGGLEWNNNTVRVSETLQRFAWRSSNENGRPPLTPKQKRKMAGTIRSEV

[12] = HGIII-sPLA2 enzyme inhibition potency – biochemical, QFRET, IC50, dose response (AID 743457);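 also: green fluorescence rise as the enzyme cleaves BODIPY PC-A2 in liposomes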
[13] = target: Matrix metalloproteinase-14 (Homo sapiens, UniProt P50281); experiment: Dose Response confirmation of uHTS hits for a small molecule inhibitors of MT1-MMP activation in a fluorescence assay set 1.; type: functional
[14] = viability loss in HepG2 hepatoma cells – cell-based, ATP luminescence, cherry-pick, activator set 2, cytotoxicity control, dose response (AID 1053143); type: functional
[15] = Late stage assay provider results from the probe development effort to identify inhibitors of the Plasmodium falciparum M18 Aspartyl Aminopeptidase (M18AAP): radiolabel-based cell-based dose response assay to identify compounds that inhibit P. falciparum growth in RBCs, Set 2..; type: functional
[16] = dual-tagged ARNT PAS-B bead signal quenchers – biochemical, dry powder, artefact control for ARNT/TACC3 disruptor project, dose response (AID 720564)
[17] = ATP-based viability loss in HepG2 cells – cell-based, CellTiter-Glo luminescence, dry powder, set 3, cytotoxicity control, dose response (AID 720594); type: functional
[18] = ATP-based viability loss in HEK293T cells – cell-based, CellTiter-Glo luminescence, dry powder, set 2, cytotoxicity control, dose response (AID 720595); type: functional; conditions: HEK293
[19] = target: T1, Heat shock factor protein 1 (Mus musculus, UniProt P38532); experiment: decrease of HSF1-responsive luciferase luminescence – cell-based, NIH3T3, dose retest, confirmation (AID 2382); type: functional;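 also: NIH3T3 fibroblasts with HSF1-driven luciferase reporter stressed by proteasome inhibitor MG132; luminescence from HSF1-driven luciferase expression after 8 hours of MG132 stress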
T1 sequence (P38532 whole entry): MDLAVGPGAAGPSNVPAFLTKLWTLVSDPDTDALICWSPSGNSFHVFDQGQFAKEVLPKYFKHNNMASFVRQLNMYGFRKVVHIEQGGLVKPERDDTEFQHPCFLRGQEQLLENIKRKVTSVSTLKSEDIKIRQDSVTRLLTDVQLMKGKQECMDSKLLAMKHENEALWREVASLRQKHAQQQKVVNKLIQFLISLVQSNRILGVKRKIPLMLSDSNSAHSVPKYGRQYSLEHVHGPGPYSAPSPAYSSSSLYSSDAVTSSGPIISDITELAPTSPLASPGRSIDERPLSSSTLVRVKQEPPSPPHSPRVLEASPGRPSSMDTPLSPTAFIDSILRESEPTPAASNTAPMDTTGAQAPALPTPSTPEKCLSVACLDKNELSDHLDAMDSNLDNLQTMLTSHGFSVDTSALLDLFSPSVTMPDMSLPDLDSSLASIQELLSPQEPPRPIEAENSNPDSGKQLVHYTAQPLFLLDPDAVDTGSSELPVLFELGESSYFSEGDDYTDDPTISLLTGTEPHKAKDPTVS

[20] = target: Long-chain-fatty-acid--AMP ligase FadD28 (Mycobacterium tuberculosis, UniProt P9WQ59); experiment: Fluorescence polarization aasay to screen for inhibitors that compete for the binding of FadD28 to a bisubstrate Measured in Biochemical System Using Plate Reader - 2147-01_Inhibitor_Dose_CherryPick_Activity.; type: functional, Mycobacterium tuberculosis H37Rv
Long-chain-fatty-acid--AMP ligase FadD28, sequence (P9WQ59 whole entry): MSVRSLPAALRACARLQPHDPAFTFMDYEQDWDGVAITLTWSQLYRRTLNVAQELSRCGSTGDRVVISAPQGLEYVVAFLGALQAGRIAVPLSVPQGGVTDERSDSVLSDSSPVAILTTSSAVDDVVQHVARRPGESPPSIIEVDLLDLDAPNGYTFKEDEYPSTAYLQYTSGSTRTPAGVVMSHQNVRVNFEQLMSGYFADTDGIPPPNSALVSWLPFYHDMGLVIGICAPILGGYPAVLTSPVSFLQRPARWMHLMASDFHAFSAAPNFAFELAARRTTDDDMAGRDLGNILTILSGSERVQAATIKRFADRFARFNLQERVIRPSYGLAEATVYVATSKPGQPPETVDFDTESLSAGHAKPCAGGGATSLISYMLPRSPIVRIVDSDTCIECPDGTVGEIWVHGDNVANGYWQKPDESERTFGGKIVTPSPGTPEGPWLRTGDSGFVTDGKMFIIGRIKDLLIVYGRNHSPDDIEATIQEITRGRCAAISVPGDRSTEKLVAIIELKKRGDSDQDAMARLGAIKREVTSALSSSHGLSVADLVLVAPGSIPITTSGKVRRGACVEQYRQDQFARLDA

[21] = target: T2, Aminopeptidase N (Plasmodium falciparum FcB1/Columbia, UniProt O96935); experiment: malaria alanyl aminopeptidase activity blockers – biochemical, fluorogenic H-Leu-NHMec substrate, 1536-well (AID 1445); design: species or system Plasmodium falciparum 3D7, 3D7
T2 sequence (O96935 whole entry): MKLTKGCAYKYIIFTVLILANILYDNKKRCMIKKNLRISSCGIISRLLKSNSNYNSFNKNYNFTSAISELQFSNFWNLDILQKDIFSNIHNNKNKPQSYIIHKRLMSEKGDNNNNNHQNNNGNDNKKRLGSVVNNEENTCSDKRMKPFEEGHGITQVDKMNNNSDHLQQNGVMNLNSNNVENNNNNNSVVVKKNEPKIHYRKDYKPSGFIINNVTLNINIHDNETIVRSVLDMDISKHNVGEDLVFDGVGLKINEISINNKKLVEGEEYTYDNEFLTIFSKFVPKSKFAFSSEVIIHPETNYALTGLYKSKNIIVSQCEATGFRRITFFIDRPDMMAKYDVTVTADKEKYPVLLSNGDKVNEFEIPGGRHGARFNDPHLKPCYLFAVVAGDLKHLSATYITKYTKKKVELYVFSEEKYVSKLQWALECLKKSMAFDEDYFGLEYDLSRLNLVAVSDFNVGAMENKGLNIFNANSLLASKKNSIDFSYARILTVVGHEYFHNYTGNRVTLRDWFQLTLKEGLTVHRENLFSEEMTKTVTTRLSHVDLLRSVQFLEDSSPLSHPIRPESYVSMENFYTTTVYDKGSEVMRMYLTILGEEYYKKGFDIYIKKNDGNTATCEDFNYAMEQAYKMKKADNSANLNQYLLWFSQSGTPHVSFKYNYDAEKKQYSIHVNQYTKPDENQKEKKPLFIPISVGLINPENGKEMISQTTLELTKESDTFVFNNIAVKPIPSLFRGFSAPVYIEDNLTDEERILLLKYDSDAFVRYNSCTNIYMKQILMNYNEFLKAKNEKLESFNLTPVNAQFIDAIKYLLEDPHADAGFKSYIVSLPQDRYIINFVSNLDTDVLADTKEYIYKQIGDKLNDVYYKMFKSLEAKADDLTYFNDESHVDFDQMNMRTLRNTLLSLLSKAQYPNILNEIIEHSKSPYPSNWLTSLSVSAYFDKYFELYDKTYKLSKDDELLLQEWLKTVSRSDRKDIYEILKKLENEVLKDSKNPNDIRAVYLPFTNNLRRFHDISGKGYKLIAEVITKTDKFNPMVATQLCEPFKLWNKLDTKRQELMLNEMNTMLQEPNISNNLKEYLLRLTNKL

[22] = general mammalian cell viability loss – inhibitor set, cherry-pick, set 2, cytotoxicity control for miR-122 modulator project, dose response (AID 720697); type: functional, cell-based
[23] = target: Fructose-bisphosphate aldolase (Mycobacterium tuberculosis, UniProt P9WQA3); experiment: Fluorescence-based biochemical high throughput dose response assay for inhibitors of the fructose-bisphosphate aldolase (FBA) of M. tuberculosis.; type: functional
Fructose-bisphosphate aldolase, sequence (P9WQA3 whole entry): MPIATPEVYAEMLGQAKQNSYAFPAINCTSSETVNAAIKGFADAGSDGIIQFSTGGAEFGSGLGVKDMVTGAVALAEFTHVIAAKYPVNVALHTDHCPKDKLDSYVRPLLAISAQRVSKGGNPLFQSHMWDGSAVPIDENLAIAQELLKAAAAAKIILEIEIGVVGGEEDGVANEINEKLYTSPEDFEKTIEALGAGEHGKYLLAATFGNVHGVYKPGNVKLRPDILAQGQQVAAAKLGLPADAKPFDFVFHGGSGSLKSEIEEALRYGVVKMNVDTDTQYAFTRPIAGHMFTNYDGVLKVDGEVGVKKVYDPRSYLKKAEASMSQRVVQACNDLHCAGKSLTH

[24] = A2780 cell killing – plate reader, dry powder samples, cytotoxicity control, dose response (AID 743046); type: functional, cell-based
[25] = non-specific 3'UTR reporter inhibition in Clone20-Shn3RL – cell-based, Renilla luciferase, cherry-picked, counter-screen for Shn3 inhibitor project, dose response (AID 624133); type: functional
[26] = Shn3 3'UTR reporter signal decrease – cell-based, Clone20 osteoblasts, firefly luciferase, cherry-pick, set 2, Schnurri-3 inhibitor project, dose response (AID 720490); type: functional;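 also: actives lower the luminescence signal as inhibitors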
[27] = reduction of Shn3 3'UTR-driven luciferase in osteoblasts – cell-based, Clone20 osteoblasts, firefly luciferase, cherry-picked, dose response (AID 624132); type: functional;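 also: firefly luciferase luminescence from reporter carrying the Shn3 3'UTR in osteoblasts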
[28] = loss of viability in HepG2 cells – cell-based, CellTiter-Glo, cherry-picked, cytotoxicity control for Shn3 inhibitor project, dose response (AID 624134); type: functional
[29] = MITF Orthogonal Assay: SK-MEL-5 CTG Assay Measured in Cell-Based System Using Plate Reader - 2084-02_Inhibitor_Dose_DryPowder_Activity_Set7.; type: functional
[30] = MITF: Counter assay: A375 proliferation Measured in Cell-Based System Using Plate Reader - 2084-03_Inhibitor_Dose_DryPowder_Activity_Set8.; type: functional; conditions: A-375
[31] = inhibitors of TRPM1-promoter reporter in SK-MEL-5 – cell-based, luciferase, dry powder, set 8, MITF inhibitor project, dose response (AID 624430); type: functional
[32] = HEK293 Cytotoxicity Assay Measured in Cell-Based System Using Plate Reader - 7071-01_Inhibitor_Dose_CherryPick_Activity_Set2.; type: functional
[33] = system: HEK293; experiment: viability loss in HEK293T cells – cell-based, ATP luminescence, cherry-pick samples, cytotoxicity control, dose response (AID 687005); type: functional; conditions: Homo sapiens;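 also: cells exposed to compound for 48 hours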
[34] = system: Cryptococcus neoformans; experiment: PubChem AID 686997; type: functional, organism-based
[35] = target: Albumin (Bos taurus, UniProt P02769); experiment: Counterscreen for inhibitors of T-cell receptor (TCR)-CD3 interaction: Fluorescence-based biochemical high throughput dose response assay to identify inhibitors of T-cell receptor (TCR)-CD3 interaction using a TAMRA-labeled BSA probe.; type: functional
Albumin, sequence (P02769 whole entry): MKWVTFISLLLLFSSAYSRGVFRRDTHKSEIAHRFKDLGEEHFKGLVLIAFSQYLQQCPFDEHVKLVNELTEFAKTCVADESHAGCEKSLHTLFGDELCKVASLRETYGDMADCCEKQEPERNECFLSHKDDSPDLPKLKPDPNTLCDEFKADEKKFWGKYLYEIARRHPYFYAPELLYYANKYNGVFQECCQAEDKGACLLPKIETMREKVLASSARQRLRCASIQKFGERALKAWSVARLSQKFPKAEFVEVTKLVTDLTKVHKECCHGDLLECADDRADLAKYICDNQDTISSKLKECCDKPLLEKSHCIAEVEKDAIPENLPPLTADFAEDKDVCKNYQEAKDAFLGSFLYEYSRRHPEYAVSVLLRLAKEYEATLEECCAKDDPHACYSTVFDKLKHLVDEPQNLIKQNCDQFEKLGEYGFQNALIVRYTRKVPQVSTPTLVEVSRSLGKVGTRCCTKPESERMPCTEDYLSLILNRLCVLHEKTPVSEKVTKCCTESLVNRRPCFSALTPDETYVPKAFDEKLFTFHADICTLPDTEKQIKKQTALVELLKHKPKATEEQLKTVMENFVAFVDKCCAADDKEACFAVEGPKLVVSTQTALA

[36] = target: T3, Endoribonuclease toxin MazF (Escherichia coli K-12, UniProt P0AE70); experiment: activation of MazEF endoribonuclease cleavage – biochemical, fluorescence, single-stranded RNA substrate, uHTS hits, dose response (AID 588481); type: functional
T3 sequence (P0AE70 whole entry): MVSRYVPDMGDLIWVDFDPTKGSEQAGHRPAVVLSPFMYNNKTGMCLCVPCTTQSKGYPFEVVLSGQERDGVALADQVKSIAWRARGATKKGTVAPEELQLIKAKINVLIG

[37] = target: T3, Endoribonuclease toxin MazF; experiment: substrate-only fluorescence increase artefacts – biochemical, single-stranded RNase substrate, counter-screen for MazEF activator project, dose response (AID 588502); type: functional
[38] = ATP-based viability loss in HeLa cells – cell-based, CellTiter-Glo luminescence, dry powder, set 2, cytotoxicity control, dose response (AID 720593); type: functional

O=C(OCc1cn([C@H]2CN(C(=O)C3CCCCC3)[C@@H](c3ccccc3)C[C@@H]2O)nn1)c1ccccc1
AC50 [1]: 16.1 µM (active)
AC50 [2]: 20.2 µM (active)

CCOC(=O)C1CCN(C(=O)c2cc3c(s2)-c2ccccc2OC3)CC1
IC50 [3]: > 80 µM (inactive)

Cc1ccc(S(=O)(=O)Nc2ccc3c(c2)C(=O)N([C@H](C)CO)C[C@@H](C)[C@@H](CN(C)Cc2ccc(C(F)(F)F)cc2)OCCCC[C@@H](C)O3)cc1
AC50 [4]: 53.7 µM (active)
AC50 [5]: 5.57 µM (active)
AC50 [6]: 39.6 µM (active)
AC50 [7]: 54.4 µM (active)
AC50 [8]: 36 µM (active)

Cn1c2ccccc2c(=O)c2ccc(F)cc21
AC50 [9]: 7.33 µM (active)
AC50 [10]: > 52 µM (inactive)

CC1(C)CCCN(C(=O)c2ccc3c(c2NCCO)C(=O)c2ccccc2C3=O)C1
IC50 [11]: 15.2 µM (active)
IC50 [12]: > 122 µM (inactive)
IC50 [13]: 17.2 µM (active)

Cc1nc(-c2ccc(C(=O)Nc3ccc(F)cc3)cc2)cs1
AC50 [14]: 26 µM (active)

COc1ccc(CNc2c3ccccc3nc3ccccc23)cc1OC
IC50 [15]: 1.05 µM (active)

CC1CCN(S(=O)(=O)c2ccc(C(=O)Nc3nnc(-c4ccccc4)o3)cc2)CC1
AC50 [16]: 86.8 µM (active)
AC50 [17]: > 52 µM (inactive)
AC50 [18]: 2.57 µM (active)

CCOc1ccc(N2C(=O)/C(=C\NNc3nnc(C)c(O)n3)c3ccccc3C2=O)cc1
IC50 [11]: 5.02 µM (active)
EC50 [19]: > 195 µM (not active)
AC50 [20]: 64.9 µM (active)
IC50 [21]: 20.9 µM (active)

CCN(CC)CCOc1cccc(C(C)C)c1
AC50 [22]: 6.91 µM (active)

CN1CCN(C(=O)COc2ccc(-c3nc4ccccc4s3)cc2)CC1
IC50 [23]: 3.57 µM (active)

COc1ccc(-c2ccc3c(c2)[C@@H]2[C@@H](CCN2C(=O)NC2CCCCC2)[C@@H](CO)N3C)cc1
AC50 [5]: 14.5 µM (active)
AC50 [6]: 37.8 µM (active)
AC50 [24]: 0.292 µM (active)

Cc1ccc(CNC(=O)c2cc3c(C)nc4ccccc4c3o2)cc1
AC50 [25]: 12.2 µM (active)
AC50 [26]: 4.02 µM (active)
AC50 [27]: 2.49 µM (active)
AC50 [28]: 64.3 µM (active)

CN1CCN(C2=C(Nc3ccc(Br)cc3)C(=O)c3ccccc3C2=O)CC1
AC50 [29]: 7.8 µM (active)
AC50 [30]: 27 µM (active)
AC50 [31]: 5.56 µM (active)

COC(=O)C1=C(C)N(CC(C)C)C(=S)NC1c1ccc(F)cc1 (stereo not drawn)
AC50 [32]: 40.3 µM (active)
AC50 [33]: 40.3 µM (active)
AC50 [34]: > 84 µM (inactive)

COC(=O)CC1(C(=O)OC)Nc2cc(Cl)c(Cl)cc2S(=O)(=O)N1O (stereo not drawn)
IC50 [35]: > 94.2 µM (inactive)
EC50 [36]: 1.14 µM (active)
EC50 [37]: > 99 µM (inactive)

CSc1ccc(-c2nnc(NC(=O)c3ccc(S(=O)(=O)N4CCC(C)CC4)cc3)o2)cc1
AC50 [38]: > 52 µM (inactive)
AC50 [17]: > 52 µM (inactive)
AC50 [18]: 9.24 µM (active)
